These are literature values, as cited in US20230149481A1, “COMBINATION THERAPY FOR INFLAMMATORY BOWEL DISEASE” (Servatus Ltd, priority 2020, published 2023).

The subject of the data set is DSS-induced colitis. The settings on record: previous tests in the same DSS-induced colitis model, compared with the Group 5 treatment of Example 1.

As to `C[C@]12C=CC(=O)C=C1CC[C@@H]1[C@@H]2[C@@H](O)C[C@@]2(C)[C@H]1CC[C@]2(O)C(=O)CO` [prednisolone], the in-life disease score result is “None of these drugs statistically improved the in-life disease score to the extent observed”. In the case of `O=C(O)c1cc(/N=N/c2ccc(S(=O)(=O)Nc3ccccn3)cc2)ccc1O` [sulfasalazine], the in-life disease score result is reported as “None of these drugs statistically improved the in-life disease score to the extent observed”.
